Measured values taken from patent US20260151383A1, “HETEROCYCLIC COMPOUNDS AND USES THEREOF” (KayoThera Inc., priority 2022, published 2026).

How the values were obtained:
Format in all cases: biochemical
Conditions in all cases: recombinant enzyme, 20° C., activity level classes
hALDH1a3 = target: T1, hALDH1a3 (Homo sapiens, UniProt P47895); assay: Aldh1a3 enzyme inhibition assay (resorufin fluorescence), human enzyme
T1 construct: made in house; host or cells: E. coli BL21-DE3
T1 sequence (P47895 1-512): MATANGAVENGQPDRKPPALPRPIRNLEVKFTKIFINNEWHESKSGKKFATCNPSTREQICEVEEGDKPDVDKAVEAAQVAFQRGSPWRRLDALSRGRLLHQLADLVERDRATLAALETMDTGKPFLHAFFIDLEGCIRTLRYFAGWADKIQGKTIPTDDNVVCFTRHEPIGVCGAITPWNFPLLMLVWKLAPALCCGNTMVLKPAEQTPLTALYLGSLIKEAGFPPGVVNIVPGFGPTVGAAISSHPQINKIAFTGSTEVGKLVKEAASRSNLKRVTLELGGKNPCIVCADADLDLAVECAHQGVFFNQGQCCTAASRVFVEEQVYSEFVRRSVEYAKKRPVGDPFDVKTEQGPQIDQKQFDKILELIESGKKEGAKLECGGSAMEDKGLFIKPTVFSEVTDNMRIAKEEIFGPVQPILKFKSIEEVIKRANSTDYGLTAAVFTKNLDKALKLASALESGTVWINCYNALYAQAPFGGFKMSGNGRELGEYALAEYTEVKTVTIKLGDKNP

mALDH1a3 = target: T2, mALDH1a3 (Mus musculus, UniProt Q9JHW9); assay: Aldh1a3 enzyme inhibition assay (resorufin fluorescence), mouse enzyme
T2 construct: made in house; host or cells: E. coli BL21-DE3
T2 sequence (Q9JHW9 1-512): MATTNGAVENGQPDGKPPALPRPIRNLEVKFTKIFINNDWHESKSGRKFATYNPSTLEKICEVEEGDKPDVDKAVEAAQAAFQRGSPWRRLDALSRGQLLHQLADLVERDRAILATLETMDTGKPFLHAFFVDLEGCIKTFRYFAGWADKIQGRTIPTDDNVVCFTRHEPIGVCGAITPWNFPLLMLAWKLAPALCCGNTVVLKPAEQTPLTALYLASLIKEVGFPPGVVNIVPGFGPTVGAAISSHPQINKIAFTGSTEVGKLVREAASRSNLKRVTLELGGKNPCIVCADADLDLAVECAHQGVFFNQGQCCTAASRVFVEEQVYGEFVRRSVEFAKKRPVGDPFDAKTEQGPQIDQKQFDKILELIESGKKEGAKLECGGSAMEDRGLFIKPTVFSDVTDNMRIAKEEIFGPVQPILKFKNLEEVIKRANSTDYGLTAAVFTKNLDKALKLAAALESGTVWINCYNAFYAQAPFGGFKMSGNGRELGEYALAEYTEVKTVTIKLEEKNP
Text: Recombinant enzyme and inhibitor added immediately before assay. Reaction rate measured by resorufin fluorescence.

hALDH1a2 = target: T3, hALDH1a2 (Homo sapiens, UniProt O94788); assay: Aldh1a2 enzyme inhibition assay (resorufin fluorescence), human enzyme
T3 construct: made in house; host or cells: E. coli BL21-DE3
T3 sequence (O94788 1-518): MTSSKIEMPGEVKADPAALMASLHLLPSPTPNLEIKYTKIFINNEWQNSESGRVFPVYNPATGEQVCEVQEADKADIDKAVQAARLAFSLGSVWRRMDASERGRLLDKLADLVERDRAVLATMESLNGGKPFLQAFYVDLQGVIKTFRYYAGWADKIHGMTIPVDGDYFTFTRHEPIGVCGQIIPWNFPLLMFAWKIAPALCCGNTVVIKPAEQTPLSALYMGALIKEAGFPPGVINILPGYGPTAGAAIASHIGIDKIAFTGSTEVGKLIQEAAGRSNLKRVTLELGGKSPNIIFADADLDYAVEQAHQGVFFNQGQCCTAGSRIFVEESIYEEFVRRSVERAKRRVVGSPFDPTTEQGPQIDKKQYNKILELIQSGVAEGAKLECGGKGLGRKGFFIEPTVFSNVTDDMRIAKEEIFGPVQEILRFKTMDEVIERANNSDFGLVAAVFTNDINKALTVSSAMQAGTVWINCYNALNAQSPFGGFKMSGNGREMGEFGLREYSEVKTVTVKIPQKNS
Text: (§1) Recombinant enzyme and inhibitor added immediately before assay. Reaction rate measured by resorufln fluorescence.

mALDH1a2 = target: T4, mALDH1a2 (Mus musculus, UniProt Q62148); assay: Aldh1a2 enzyme inhibition assay (resorufin fluorescence), mouse enzyme
T4 construct: made in house; host or cells: E. coli BL21-DE3
T4 sequence (Q62148 1-518): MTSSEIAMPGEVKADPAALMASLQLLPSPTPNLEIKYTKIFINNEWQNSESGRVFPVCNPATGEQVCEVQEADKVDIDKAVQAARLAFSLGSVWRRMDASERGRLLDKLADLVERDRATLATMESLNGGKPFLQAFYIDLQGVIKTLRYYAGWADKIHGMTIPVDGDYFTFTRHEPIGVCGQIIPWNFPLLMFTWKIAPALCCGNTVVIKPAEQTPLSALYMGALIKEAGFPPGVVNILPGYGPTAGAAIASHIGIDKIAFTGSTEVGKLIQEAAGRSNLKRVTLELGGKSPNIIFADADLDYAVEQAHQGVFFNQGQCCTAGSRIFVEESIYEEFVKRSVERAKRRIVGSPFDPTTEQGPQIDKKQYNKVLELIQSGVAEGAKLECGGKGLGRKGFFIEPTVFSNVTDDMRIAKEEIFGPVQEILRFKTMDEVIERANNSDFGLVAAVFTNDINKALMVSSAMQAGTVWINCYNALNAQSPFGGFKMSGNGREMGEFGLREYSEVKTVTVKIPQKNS
Text: as §1

SMILES	IC50 (hALDH1a3) [µM]	mAldh1a3 IC50 (mALDH1a3)	IC50 (hALDH1a2) [µM]	IC50 (mALDH1a2) [µM]	IC50 (mALDH1a3) [µM]	hAldh1a3 IC50 (hALDH1a3)
Cc1cc(NC(=O)c2ccncc2-c2cccc(F)c2)cc2c1NC(=O)CC2 [Compound 3, 3-(3-fluorophenyl)-N-(8-methyl-2-oxo-1,2,3,4-tetrahydroquinolin-6-yl)isonicotinamide]	1 to 5	No activity	0.25 to 1	0.25 to 1	–	–
Cc1cc(NC(=O)c2scnc2CC(C)(C)C)cc2c1NC(=O)CC2 [Compound 64]	0.25 to 1	–	0.25 to 1	1 to 5	1 to 5	–
Cc1cc(NC(=O)c2ccncc2-c2ccccc2C#N)cc2c1NC(=O)CC2 [Compound 16]	–	No activity	> 5	> 5	–	No activity
CCc1csnc1C(=O)Nc1cc(C)c2c(c1)C1CC1C(=O)N2 (centres unmarked) [Compound 46]	0.1 to 0.25	–	0.1 to 0.25	0.1 to 0.25	< 0.1	–
CCc1scnc1C(=O)Nc1cc(Cl)c2c(c1)CCC(=O)N2 [Compound 44]	1 to 5	–	1 to 5	1 to 5	0.1 to 0.25	–
Cc1cc(NC(=O)c2ccccc2-c2cccc(F)c2)cc2c1NC(=O)CC2 [Compound 23]	> 5	–	1 to 5	1 to 5	> 5	–
O=C1CCc2cc(NC(=O)c3ccncc3-c3ccccc3)ccc2N1 [Compound 21]	> 5	No activity	1 to 5	1 to 5	–	–
Cc1cc(OCCN(C)Cc2cccc(F)c2)cc2c1NC(=O)CC2 [Compound 10]	1 to 5	–	1 to 5	1 to 5	1 to 5	–
O=C(Nc1cc(F)c2c(c1)C1CC1C(=O)N2)c1ocnc1CC(F)(F)F (centres unmarked) [Compound 61]	0.1 to 0.25	–	0.25 to 1	0.25 to 1	0.25 to 1	–
Cc1cc(NC(=O)c2scnc2CC(F)(F)F)cc2c1NC(=O)CC2 [Compound 31]	0.1 to 0.25	–	0.25 to 1	0.25 to 1	< 0.1	–
Cc1cc(NC(=O)c2scnc2C)cc2c1NC(=O)CC2 [Compound 67]	0.25 to 1	–	1 to 5	1 to 5	0.25 to 1	–
Cc1cc(NC(=O)c2scnc2CC(C)C)cc2c1NC(=O)CC2 [Compound 65]	0.1 to 0.25	–	1 to 5	1 to 5	0.25 to 1	–
CCc1cnsc1C(=O)Nc1cc(C)c2c(c1)C1CC1C(=O)N2 (centres unmarked) [Compound 41]	< 0.1	–	< 0.1	< 0.1	< 0.1	–
Cc1cc(NC(=O)c2ccncc2-c2ccc(C#N)cc2)cc2c1NC(=O)CC2 [Compound 14]	–	No activity	> 5	> 5	–	No activity
CCc1ncoc1C(=O)Nc1cc(C)c2c(c1)CCC(=O)N2 [Compound 57]	0.25 to 1	–	1 to 5	1 to 5	0.1 to 0.25	–
CCc1ncsc1C(=O)Nc1cc(Cl)c2c(c1)CCC(=O)N2 [Compound 36]	0.1 to 0.25	–	0.25 to 1	0.25 to 1	< 0.1	–

SMILES	IC50 (hALDH1a3) [µM]	mAldh1a3 IC50 (mALDH1a3)	IC50 (hALDH1a2) [µM]	IC50 (mALDH1a2) [µM]	IC50 (mALDH1a3) [µM]	hAldh1a3 IC50 (hALDH1a3)
CCc1cnsc1C(=O)Nc1cc(C)c2c(c1)CCC(=O)N2 [Compound 48]	0.1 to 0.25	–	0.1 to 0.25	0.1 to 0.25	< 0.1	–
CCc1sncc1C(=O)Nc1cc(C)c2c(c1)CCC(=O)N2 [Compound 50]	0.25 to 1	–	0.25 to 1	0.25 to 1	< 0.1	–
Cc1cc(NC(=O)c2ccncc2-c2ccccc2)cc2c1NC(=O)CC2 [Compound 1, N-(8-methyl-2-oxo-1,2,3,4-tetrahydroquinolin-6-yl)-3-phenylisonicotinamide]	1 to 5	–	0.1 to 0.25	0.1 to 0.25	1 to 5	–
O=C1CCc2cc(NC(=O)c3scnc3CC(F)(F)F)cc(Cl)c2N1 [Compound 35]	0.1 to 0.25	–	0.25 to 1	0.25 to 1	< 0.1	–
CCc1ncsc1C(=O)Nc1cc(Cl)c2c(c1)C1CC1C(=O)N2 (centres unmarked) [Compound 43]	0.1 to 0.25	–	1 to 5	1 to 5	< 0.1	–
Cc1cc(OCCN(C)C(=O)c2cccc(F)c2)cc2c1NC(=O)CC2 [Compound 9, 3-fluoro-N-methyl-N-(2-((8-methyl-2-oxo-1,2,3,4-tetrahydroquinolin-6-yl)oxy)ethyl)benzamide]	> 5	–	1 to 5	1 to 5	> 5	–
CCc1ncoc1C(=O)Nc1cc(C)c2c(c1)C1CC1C(=O)N2 (centres unmarked) [Compound 60]	0.25 to 1	–	0.25 to 1	0.25 to 1	0.1 to 0.25	–
Cc1ccccc1-c1cnccc1C(=O)Nc1cc(C)c2c(c1)CCC(=O)N2 [Compound 15, N-(8-methyl-2-oxo-1,2,3,4-tetrahydroquinolin-6-yl)-3-(o-tolyl)isonicotinamide]	–	No activity	> 5	> 5	–	No activity
O=C1CCc2cc(NC(=O)c3ccncc3-c3ccccc3)cc(Cl)c2N1 [Compound 20]	1 to 5	–	< 0.1	0.1 to 0.25	1 to 5	–
Cc1cc(NC(=O)c2ocnc2CC(F)(F)F)cc2c1NC(=O)C1CC21 (centres unmarked) [Compound 82]	0.1 to 0.25	–	0.1 to 0.25	0.1 to 0.25	0.1 to 0.25	–
Cc1cc(NC(=O)c2scnc2CC(F)(F)F)cc2c1NC(=O)C1CC21 (centres unmarked) [Compound 33]	0.1 to 0.25	–	< 0.1	< 0.1	< 0.1	–
CCc1scnc1C(=O)Nc1cc(C)c2c(c1)C1CC1C(=O)N2 (centres unmarked) [Compound 39]	0.25 to 1	–	0.25 to 1	0.25 to 1	0.25 to 1	–
Cc1cc(NC(=O)c2cnsc2CC(F)(F)F)cc2c1NC(=O)CC2 [Compound 49]	< 0.1	–	< 0.1	0.1 to 0.25	< 0.1	–
Cc1cc(NC(=O)c2scnc2CC2CC2)cc2c1NC(=O)CC2 [Compound 63]	< 0.1	–	0.1 to 0.25	0.25 to 1	< 0.1	–
Cc1cc(NC(=O)c2ccncc2-c2ccccc2F)cc2c1NC(=O)CC2 [Compound 2, 3-(2-fluorophenyl)-N-(8-methyl-2-oxo-1,2,3,4-tetrahydroquinolin-6-yl)isonicotinamide]	1 to 5	No activity	0.1 to 0.25	0.25 to 1	–	–
CCCc1ncsc1C(=O)Nc1cc(C)c2c(c1)CCC(=O)N2 [Compound 66]	0.1 to 0.25	–	0.25 to 1	0.25 to 1	0.1 to 0.25	–
